Activity calls are given as the source filed them.
Legend:
[1] = viability loss in HepG2 hepatoma cells – cell-based, ATP luminescence, cherry-pick, activator set 2, cytotoxicity control, dose response (AID 1053143); type: functional
[2] = molecular target: T1, Histone-lysine N-methyltransferase NSD2 (Homo sapiens, UniProt O96028); type: biochemical
T1 sequence (O96028 whole entry): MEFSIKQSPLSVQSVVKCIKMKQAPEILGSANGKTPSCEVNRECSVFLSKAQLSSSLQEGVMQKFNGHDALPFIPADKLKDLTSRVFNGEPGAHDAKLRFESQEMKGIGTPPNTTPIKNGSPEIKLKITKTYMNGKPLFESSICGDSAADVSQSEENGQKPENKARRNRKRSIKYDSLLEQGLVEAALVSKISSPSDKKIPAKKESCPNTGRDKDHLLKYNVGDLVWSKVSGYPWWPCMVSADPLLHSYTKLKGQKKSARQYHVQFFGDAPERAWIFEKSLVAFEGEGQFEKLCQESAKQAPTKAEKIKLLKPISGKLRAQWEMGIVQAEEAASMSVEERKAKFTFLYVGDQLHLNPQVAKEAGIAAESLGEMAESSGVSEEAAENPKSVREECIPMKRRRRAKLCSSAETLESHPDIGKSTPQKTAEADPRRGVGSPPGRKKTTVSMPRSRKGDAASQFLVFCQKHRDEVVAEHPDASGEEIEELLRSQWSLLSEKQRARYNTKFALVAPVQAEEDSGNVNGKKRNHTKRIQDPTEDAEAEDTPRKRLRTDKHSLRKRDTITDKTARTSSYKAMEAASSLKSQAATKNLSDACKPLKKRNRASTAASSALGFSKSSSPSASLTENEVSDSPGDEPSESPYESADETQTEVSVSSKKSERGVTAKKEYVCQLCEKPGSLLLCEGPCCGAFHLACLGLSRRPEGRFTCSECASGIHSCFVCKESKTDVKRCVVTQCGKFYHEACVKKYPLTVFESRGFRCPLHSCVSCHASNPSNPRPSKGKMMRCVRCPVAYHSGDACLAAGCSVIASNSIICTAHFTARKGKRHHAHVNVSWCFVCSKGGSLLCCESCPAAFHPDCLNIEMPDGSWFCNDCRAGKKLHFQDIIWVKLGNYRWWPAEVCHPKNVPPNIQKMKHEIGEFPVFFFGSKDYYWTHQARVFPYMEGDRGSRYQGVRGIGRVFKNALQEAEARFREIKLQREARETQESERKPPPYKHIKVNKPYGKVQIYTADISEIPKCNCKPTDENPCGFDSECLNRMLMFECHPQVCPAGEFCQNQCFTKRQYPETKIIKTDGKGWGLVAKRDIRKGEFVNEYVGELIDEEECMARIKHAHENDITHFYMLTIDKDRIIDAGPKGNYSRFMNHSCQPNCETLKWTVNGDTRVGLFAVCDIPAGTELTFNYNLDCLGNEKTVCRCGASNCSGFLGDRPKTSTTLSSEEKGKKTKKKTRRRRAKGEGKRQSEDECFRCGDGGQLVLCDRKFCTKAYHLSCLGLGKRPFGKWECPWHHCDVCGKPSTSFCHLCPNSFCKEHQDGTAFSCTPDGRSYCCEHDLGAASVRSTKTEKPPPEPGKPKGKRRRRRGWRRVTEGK

cells [3] = type: functional, cell-based
[4] = molecular target: T2, Trace amine-associated receptor 1 (Homo sapiens, UniProt Q96RJ0); assay: Fluorescence-based cell-based high throughput dose response assay to identify agonists of the human trace amine associated receptor 1 (TAAR1).; type: functional
T2 sequence (Q96RJ0 whole entry): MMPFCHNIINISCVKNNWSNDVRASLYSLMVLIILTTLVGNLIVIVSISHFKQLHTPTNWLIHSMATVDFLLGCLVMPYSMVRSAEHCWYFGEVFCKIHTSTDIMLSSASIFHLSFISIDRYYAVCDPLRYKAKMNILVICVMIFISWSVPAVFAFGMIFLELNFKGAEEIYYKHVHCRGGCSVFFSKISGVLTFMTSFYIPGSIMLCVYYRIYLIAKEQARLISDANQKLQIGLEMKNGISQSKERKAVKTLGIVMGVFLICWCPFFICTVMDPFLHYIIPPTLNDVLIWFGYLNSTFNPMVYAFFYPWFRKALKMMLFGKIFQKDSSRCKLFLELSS

[5] = molecular target: T2, Trace amine-associated receptor 1; assay: Counterscreen for agonists of the human trace amine associated receptor 1 (hTAAR1): Fluorescence-based cell-based high throughput dose response assay to identify hTAAR1 agonist that also desensitize TAAR1 receptor response.; type: functional
cells [6] = type: functional, cell-based; remark: listed apart in the source
[7] = molecular target: Heat shock protein HSP 90-alpha (Homo sapiens, UniProt P07900); type: functional, organism-based
[8] = molecular target: T3, Probable nicotinate-nucleotide adenylyltransferase (Staphylococcus aureus (strain N315), UniProt P65502); type: functional, Staphylococcus aureus subsp. aureus N315;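 as to IC50 Mean: confirmatory dose-response retesting of NadD inhibitor hits first found in an ultra-high-throughput screen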
T3 sequence (P65502 whole entry): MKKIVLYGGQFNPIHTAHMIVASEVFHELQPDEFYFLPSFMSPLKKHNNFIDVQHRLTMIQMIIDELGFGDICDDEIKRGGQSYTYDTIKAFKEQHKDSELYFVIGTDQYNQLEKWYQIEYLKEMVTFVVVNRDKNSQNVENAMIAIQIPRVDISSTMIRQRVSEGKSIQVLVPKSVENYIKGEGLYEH

[9] = molecular target: T3, Probable nicotinate-nucleotide adenylyltransferase; type: functional, Staphylococcus aureus subsp. aureus N315; settings: read-out: IC50_Mean
[10] = molecular target: T4, Heat shock factor protein 1 (Mus musculus, UniProt P38532); assay: decrease of HSF1-responsive luciferase luminescence – cell-based, NIH3T3, dose retest, confirmation (AID 2382); type: functional;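 also: NIH3T3 fibroblasts with HSF1-driven luciferase reporter stressed by proteasome inhibitor MG132; luminescence from HSF1-driven luciferase expression after 8 hours of MG132 stress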
T4 sequence (P38532 whole entry): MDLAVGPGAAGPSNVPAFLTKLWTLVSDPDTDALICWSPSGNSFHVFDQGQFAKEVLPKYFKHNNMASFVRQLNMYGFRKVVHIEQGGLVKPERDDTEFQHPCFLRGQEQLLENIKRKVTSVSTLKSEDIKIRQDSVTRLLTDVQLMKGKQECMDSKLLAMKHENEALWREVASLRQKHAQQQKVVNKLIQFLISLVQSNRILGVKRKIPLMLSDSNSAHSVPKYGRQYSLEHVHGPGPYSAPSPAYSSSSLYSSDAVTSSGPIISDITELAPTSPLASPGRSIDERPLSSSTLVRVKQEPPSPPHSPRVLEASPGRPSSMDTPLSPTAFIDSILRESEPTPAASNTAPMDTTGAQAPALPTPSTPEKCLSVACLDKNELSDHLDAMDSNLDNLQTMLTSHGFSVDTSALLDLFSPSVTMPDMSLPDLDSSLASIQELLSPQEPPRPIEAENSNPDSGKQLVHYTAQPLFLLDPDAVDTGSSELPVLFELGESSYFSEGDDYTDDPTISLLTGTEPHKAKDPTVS

[11] = molecular target: T5, Corticotropin-releasing factor receptor 2/Corticotropin-releasing factor-binding protein (Homo sapiens, UniProt P24387+Q13324); assay: Dose Response confirmation of uHTS hits for small molecule antagonists of the CRF-binding protein and CRF-R2 receptor complex.; type: functional; settings: read-out: IC50_Mean
T5 sequence (Q13324 whole entry): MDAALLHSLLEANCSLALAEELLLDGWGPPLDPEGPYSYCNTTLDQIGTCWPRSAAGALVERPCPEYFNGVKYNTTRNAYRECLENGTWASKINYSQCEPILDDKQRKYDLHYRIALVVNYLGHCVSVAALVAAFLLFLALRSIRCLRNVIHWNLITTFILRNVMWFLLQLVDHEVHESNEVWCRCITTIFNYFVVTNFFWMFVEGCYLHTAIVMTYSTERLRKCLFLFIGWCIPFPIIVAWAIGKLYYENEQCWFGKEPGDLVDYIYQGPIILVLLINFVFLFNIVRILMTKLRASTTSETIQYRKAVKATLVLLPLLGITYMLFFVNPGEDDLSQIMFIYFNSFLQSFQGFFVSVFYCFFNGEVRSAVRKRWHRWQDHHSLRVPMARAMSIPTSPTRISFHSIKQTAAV
T5 sequence (P24387 whole entry): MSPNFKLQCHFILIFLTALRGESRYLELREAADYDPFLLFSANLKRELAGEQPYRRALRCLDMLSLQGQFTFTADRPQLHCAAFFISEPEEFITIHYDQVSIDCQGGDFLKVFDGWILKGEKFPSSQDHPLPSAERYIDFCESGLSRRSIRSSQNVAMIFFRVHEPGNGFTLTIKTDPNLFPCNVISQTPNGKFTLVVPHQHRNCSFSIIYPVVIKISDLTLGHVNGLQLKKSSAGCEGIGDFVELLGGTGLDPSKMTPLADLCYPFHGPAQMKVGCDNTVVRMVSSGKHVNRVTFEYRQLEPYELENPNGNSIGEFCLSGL

[12] = molecular target: T5, Corticotropin-releasing factor receptor 2/Corticotropin-releasing factor-binding protein; assay: activators of CRF receptor 2 with binding protein – uHTS hits, confirmation (AID 602473); type: functional; settings: read-out: EC50_Mean
[13] = molecular target: T6, Low molecular weight phosphotyrosine protein phosphatase (Homo sapiens, UniProt P24666); type: functional; settings: read-out: IC50_Mean
T6 sequence (P24666 whole entry): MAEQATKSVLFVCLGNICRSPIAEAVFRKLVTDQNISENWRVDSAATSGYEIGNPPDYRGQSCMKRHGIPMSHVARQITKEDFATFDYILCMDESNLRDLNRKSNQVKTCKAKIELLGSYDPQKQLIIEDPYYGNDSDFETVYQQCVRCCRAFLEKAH

[14] = molecular target: T6, Low molecular weight phosphotyrosine protein phosphatase; type: functional; settings: read-out: IC50_Mean; remark: listed apart in the source
[15] = Luminescence-based cell-based high throughput dose response assay to identify activators of the DAF-12 from the parasite S. stercoralis (ssDAF-12).; type: functional
INS1 = assay: INS-1E survival protection against cytokine death – cell-based, luminescence, retest, dose response (AID 449756); type: functional; settings: Rattus norvegicus;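 also: cell death triggered by IL-1 beta plus TNF-alpha plus IFN-gamma mixture; protective hits raise ATP signal compared with cytokine alone wells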
[16] = molecular target: T7, DNA repair and recombination protein RAD54-like (Homo sapiens, UniProt Q92698); assay: RAD54 Holliday junction migration blockers – biochemical, fluorescence, cherry-picked samples, dose series, confirmation (AID 651657); type: functional
T7 sequence (Q92698 whole entry): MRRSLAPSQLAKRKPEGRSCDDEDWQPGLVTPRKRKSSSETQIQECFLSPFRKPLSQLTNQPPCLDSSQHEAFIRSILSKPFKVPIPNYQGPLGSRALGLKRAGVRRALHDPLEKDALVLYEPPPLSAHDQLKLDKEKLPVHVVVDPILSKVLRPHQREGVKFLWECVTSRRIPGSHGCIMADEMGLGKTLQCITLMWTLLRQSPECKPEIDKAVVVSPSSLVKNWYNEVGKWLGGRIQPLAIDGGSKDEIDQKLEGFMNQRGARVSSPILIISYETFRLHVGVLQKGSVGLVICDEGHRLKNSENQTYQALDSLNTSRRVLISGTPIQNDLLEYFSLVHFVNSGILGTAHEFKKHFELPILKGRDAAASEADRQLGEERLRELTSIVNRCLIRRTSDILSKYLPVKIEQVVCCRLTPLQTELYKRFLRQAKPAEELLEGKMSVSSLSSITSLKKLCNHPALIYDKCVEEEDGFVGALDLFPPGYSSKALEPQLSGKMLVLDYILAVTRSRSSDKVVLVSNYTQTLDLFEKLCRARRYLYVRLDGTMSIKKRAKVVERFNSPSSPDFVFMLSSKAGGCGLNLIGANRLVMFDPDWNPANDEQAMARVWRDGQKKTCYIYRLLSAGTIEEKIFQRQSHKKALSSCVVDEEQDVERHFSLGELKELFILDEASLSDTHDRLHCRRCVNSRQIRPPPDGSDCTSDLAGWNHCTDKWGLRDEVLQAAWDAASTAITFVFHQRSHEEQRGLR

[17] = A549 cell cytotoxicity, dose response, cytotoxicity control, plate reader, cherry-pick, antagonist series (AID 743412); type: functional, cell-based
[18] = toxicity toward HepG2 liver cells – cell-based, plate reader, cherry-pick, antagonist series, cytotoxicity control, dose response (AID 743416); type: functional
[19] = blockers of bursicon-stimulated LGR2 cAMP reporter – cell-based, HEK293, CRE-luciferase reporter, cherry pick, set 2, dose response (AID 743343); type: functional;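 also: transfected cells were stimulated with diluted bursicon conditioned medium after compound addition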
[20] = blockade of melanocortin 4 receptor signaling – cell-based, plate reader, cherry pick, counter-screen for LGR2 antagonist project, dose response (AID 743444); type: functional;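 also: transfected HEK 293 cells stimulated with alpha-MSH peptide; potency of inhibitors of the alpha-MSH evoked signal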
[21] = viability loss in HEK293 cells – cell-based, plate reader, cherry-picked samples, cytotoxicity control, dose response (AID 743446); type: functional

## CC1CCCN(c2nc3ccsc3c(=O)s2)C1 (stereo not drawn)
[1]
  AC50: > 52 µM (inactive)

## Oc1ccccc1CNc1cccc2cccnc12
[2]
  AC50: 14.4 µM (active)

## COc1ccc(C(c2nnnn2CCc2ccccc2)N2CCN(C3CCCC3)CC2)cc1 (stereo not drawn)
Cells [3]
  IC50: > 29.9 µM (inactive)
[4]
  EC50: 1.62 µM (active)
[5]
  IC50: 8.17 µM (active)
Cells [6]
  EC50: > 29.9 µM (inactive)

## CC1=NOC(=O)/C1=C\c1ccc(-c2ccc(Br)cc2)o1
[7]
  AC50: 4.12 µM (active)
[2]
  AC50: > 20 µM (inactive)

## Cc1ccc(-c2cc(-c3ccccc3Cl)c(C#N)c(N)n2)o1
[8]
  IC50: 5.05 µM (active)
[9]
  IC50: 7.76 µM (active)

## O=C(N[C@@H](Cc1cccnc1)C(=O)N1CCC[C@H]1C(=O)NCCc1ccccc1Cl)C1CC1
Cells [3]
  IC50: > 29.9 µM (inactive)
[4]
  EC50: > 9.98 µM (active)
[5]
  IC50: 13.6 µM (inactive)
Cells [6]
  EC50: > 29.9 µM (inactive)

## Cc1[nH]c(=O)c(C#N)cc1-c1csc(-c2ccccc2)n1
[10]
  EC50: > 195 µM (not active)
[11]
  IC50: > 47.1 µM (inactive)
[12]
  EC50: > 53 µM (inactive)
[13]
  IC50: 27 µM (inactive)
[14]
  IC50: 67.8 µM (inactive)

## O=[N+]([O-])c1cc(Cl)ccc1-c1nc(-c2ccccc2)no1
[15]
  IC50: > 67.6 µM (inactive)

## CC(=O)Nc1sc2c(c1-c1nc3ccccc3s1)CN(C(C)C)CC2
INS1
  AC50: 0.752 µM (active)
[16]
  AC50: 0.715 µM (active)
[17]
  AC50: 2.35 µM (active)
[18]
  AC50: 3.52 µM (active)
[19]
  AC50: 27.7 µM (active)
[1]
  AC50: 12.5 µM (active)
[20]
  AC50: 23.2 µM (active)
[21]
  AC50: 25.7 µM (active)

From ChEMBL document CHEMBL1201862, “PubChem BioAssay data set” (2004)
